For the assay, the system named is tail wounds of irradiated mice. Put plainly: Healing of tail bite wounds in irradiated mice. It counts as in vivo. Particulars: male mice with tail bite wounds; 7, 8, or 9 Gy 60 Cobalt gamma radiation single acute dose; direct muscle injection 0.5 ml bolus at 2 micromolar; 7 weeks post-radiation exposure; saline controls had unhealed tail wounds. The method, then: The male mice fought while confined with four mice/bin. They sustained extensive tail wounds from biting. We then exposed the mice to either 7, 8, or 9 Gy 60 Cobalt gamma radiation in a single acute dose. [Sar^9,Met(02)^11]-substance P was administered by direct muscle injection in a 0.5 ml bolus at 2 micromolar concentration. Control animals received injections of normal saline.

[Sar^9,Met(O2)^11]-substance P: the unhealed tail wounds entry was “did not have any unhealed tail wounds”.

These data come from patent publication US20080318869A1, “Method to Promote Wound Healing” (IMMUNEREGEN BIOSCIENCES, INC., priority 2004, published 2008).
